Source: paper PMC3514216, “SRC Homology 2 Domain Binding Sites in Insulin, IGF-1 and FGF receptor mediated signaling networks reveal an extensive potential interactome” (Cell Communication and Signaling : CCS, 2012)

Tested on: panel of 50 SH2 domains
Test: SPOT peptide array probed with each of 50 GST-SH2 domains
Type: binding
Conditions: SPOT192 peptide array; for SH2 Domains >3X: list of GST-SH2 domains with spot intensity >3X array mean (array-positive); for 2X < SH2 Domains < 3X: list of GST-SH2 domains with spot intensity between 2X and 3X array mean (indeterminate range)
Description: The use of addressable peptide arrays is a reproducible and semi-quantitative approach that has been extensively validated for studying protein interactions with peptide ligands. To investigate connections between SH2 domain proteins and their putative phosphorylated docking sites on cell surface receptors, we developed addressable arrays consisting of 192 phosphotyrosine peptides. This peptide set was assembled using 71 phosphotyrosine peptide motifs corresponding to all of the cytoplasmic tyrosine residues within the FGF receptors (FGFR1-4), insulin receptor (InsR) and IGF-1 receptor (IGF-1R) (Figure 1A). Activation of these receptors results in the phosphorylation of associated scaffold proteins, and so 75 phosphotyrosine peptides corresponding to a comprehensive list of tyrosine residues within insulin receptor substrates (IRS-1 and IRS-2) and fibroblast receptor substrates (FRS-2 and FRS-3) were included. In addition, 33 phosphotyrosine peptides were incorporated from the downstream signaling proteins PLC-γ1, p130Cas (BCAR1) and p62DOK1. […] These control peptides provide a reference and establish the empirical cut-off for designated binding interactions (Table 1). No discrimination was made against peptides on the basis of reported phosphorylation state in order to examine a diverse and unbiased set of motifs. The resulting set of 192 phosphotyrosine peptides and their corresponding position in the proteins of origin is noted in Additional file 1: Table S1. Addressable arrays were synthesized as membrane-bound 11-mer peptides using the SPOT synthesis technique. While the majority of SH2 domains recognize residues C-terminal to the phosphotyrosine in their cognate peptide ligands, additional contacts between SH2 domains and residues N-terminal to the phosphotyrosine are observed for the SH2 domain of Sh2d1a (SAP) and cannot be ruled out in other cases. Peptides were synthesized with six flanking residues C-terminal to the phosphotyrosine and four residues N-terminal to the phosphotyrosine.
To assess the potential network of SH2 domain interactions we selected 50 SH2 domains representing 28 of the 38 families of SH2 domains (Figure 1B) all of which we have previously shown can be expressed and purified. These include a number of extensively studied SH2 domains (Src, Grb2, PLCγ), as well as a number of less studied SH2 domains from proteins such as Shd, She, Shf, Slnk (Sh2d6), Sh2d1a (SAP), Sh2d1b (Eat-2), and Brdg1. To address potential variability in specificity within families we employed all members from the SHB, CRK, GRB2, SRC and ABL families (families are indicated with complete Capitalized lettering).
SH2 domains were arrayed as GST fusion proteins and detected using anti-GST primary antibodies and near-infrared labeled secondary antibodies. In an effort to present a dataset with minimal false positives, we chose an empirical cutoff based on the array average across all peptide spots to classify interactions (Figure 1A). In cases where the intensity of the signal for an individual SH2-domain binding event exceeded the mean intensity of all the peptides on the membrane by three-fold were scored as “array positives” [22]. Non-binding was judged in cases where the intensity of a spot was less than the mean intensity of all spots on the membrane and these were scored as “array negatives”. Peptides with signal intensities between 1X and 3X mean were scored as “indeterminate” and ascribed as neither array positive binding interactions nor array-negative non-binders. […] This signature may be indicative of promiscuity differences between phosphopeptides or there may be a subset of peptides which interact in a nonspecific fashion with either the GST fusion tag or one of the antibodies used for detection, resulting in false positives. […]

| Substance | SH2 Domains >3X | 2X < SH2 Domains < 3X |
| --- | --- | --- |
| PVFFpYVQAKTG [B09] | BRDG1, MIST, Sh2b, SYK_C | BCAR3, RASA1_C, SHF, TENC1 |
| GTEEpYMKMDLG [C18] |  | PI3K1_C |
| SLPQpYPHINGS [F06] | ZAP70_N |  |
| DDPSpYVNVQNL [A06] | GADS, GRAP, GRB2, SH2D1B |  |
| YELPpYNPATDD [H22] | SLNK |  |
| AEPDpYGALYEG [H01] | FGR, FYN, HCK, LYN, SH2D1B, SHC1, SHIP1, SLNK, SRC, YES, ZAP70_N | BLK, BMX, LCK |
| ATDDpYAVPPPR [A02/H23] | CRK, CRKL, HCK | SRC |
| GDITpYGQFAQL [G17] |  | GRB7 |
| EHIPpYTHMNGG [B06] |  | PI3K1_C |
| APVSpYADMRTG [C21] |  | MIST |
| TNELpYMMMRDS [E17] |  | PI3K1_C |
| EDDGpYDVPKPP [A03] | CRK, CRKL, FGR, HCK, SHIP1, SRC, YES | ABL1, BLK, FYN, LYN |
| IGSIpYLFLRKR [A17] | BCAR3, BMX, BRDG1, BRK, DAPP1, FER, MATK, MIST, PI3K1_N, PLCG2_N, PTPN11_N, PTPN11_C, RASA1_C, RIN1, Sh2b, SHB, SHF, SHD, TENC1 | FGR, GRB2, PI3K1_C, PLCG2_C, SH3BP2, SHE, SYK_C |
| MDGGpYLDQPDN [B04] | FGR, FYN, LYN, SH2D1B, SHC1, SHIP1, SRC, YES | BLK, HCK, LCK |
| SQVNpYRVPNMR [G16] | BCAR3, BRDG1, MIST, PLCG2_N, SHF, TENC1 | BMX, CRKL, PLCG2_C |
| GYPRpYPSFGDA [G01] |  | ZAP70_N |

| Substance | SH2 Domains >3X | 2X < SH2 Domains < 3X |
| --- | --- | --- |
| RRYGpYDSNLFS [F23] | ABL1, BCAR3, BMX, BRDG1, CRK, CRKL, FER, MATK, SHB, SHD, TENC1 | PLCG2_N, PTPN11_C, SH2D2A, SHF |
| PKCTpYENVTGG [G13] | GADS, GRB2, GRB7, SH3BP2 | GRAP, MIST |
| NPGFpYVEANPM [H03] | ZAP70_N | PI3K1_C |
| SPGEpYVNIEFG [C16] | BLK, BMX, DAPP1, FGR, GADS, GRAP, GRB2, GRB7, ITK, MIST, PI3K1_N, PI3K1_C, PLCG2_C, PTPN11_N, PTPN11_C, RASA1_N, RASA1_C, Sh2b, SH2D2A, SHB, SHF, SHD, SHE, SYK_C, VAV1, YES | ABL1, ABL2, BRK, FYN, HCK, LCK, LYN, SH2D1B, SRC, TENC1 |
| RGMEpYLASQKC [E24] | BRDG1, SHF | BCAR3, PLCG2_N, PLCG2_C, SHB, SHD, ZAP70_N |
| VSCTpYQLARGM [E23] | BRDG1, MIST, PLCG2_N, SHF | ITK, PLCG2_C, SHB |
| LEYCpYNPSHNP [E10] | GRB7 |  |
| EQDEpYDIPRHL [H10] | BRK, CRK, CRKL, FGR, FYN, LCK, LYN, RIN1, SHC1, YES | ABL1, BLK, HCK, PI3K1_N, SH2D1B, SHIP1, SRC |
| VSFYpYSEENKP [B16] | ABL1, BCAR3 | ABL2, MATK |
| WRGDpYGGKKQL [H04] | BCAR3, BRDG1, BRK, DAPP1, FER, MIST, RIN1, TENC1 | BMX, ITK, PLCG2_N, Sh2b, SH3BP2, SHF, SHD, SYK_C |
| GGEFpYGYMTMD [D10] | BCAR3, DAPP1, GRB7, PLCG2_C, SLNK | BMX, MATK, RASA1_N, RASA1_C |
| PSDApYYGPEDP [C10] | DAPP1, PLCG2_N, PLCG2_C | BLK, BMX, LCK, RASA1_N |
| KEEGpYELPYNP [H21] | ABL1, ABL2, BLK, BRK, FGR, FYN, HCK, ITK, LCK, LYN, NCK1, PI3K1_N, RASA1_N, RASA1_C, RIN1, SH2D1B, SHC1, SHIP1, SRC, VAV1, YES | FER, GRB7 |
| YVTDpYLDVPSN [A16] | SLNK | BRK, RASA1_N |
| NLREpYLQARRP [E08] | BRDG1, DAPP1, MIST, PLCG2_N, PTPN11_C, Sh2b, SHB, SHF, SHD, SYK_C, TENC1 | BCAR3, BMX, PTPN11_N, SHE |
